Measurements from article PMC2994877, “A Full Pharmacological Analysis of the Three Turkey β-Adrenoceptors and Comparison with the Human β-Adrenoceptors” (PLoS ONE, 2010).
Where two headings read alike, the source gives them in different places. Marks after values point to notes of the source that are not given here.

What was measured:
[1] = target: T1, turkey β3C-adrenoceptor (tβ3C) (Meleagris gallopavo, UniProt A0A803YLI8); assay: 3H-CGP12177 whole cell binding, CHO tβ3C cells
[2] = target: T2, turkey β4C-adrenoceptor (tβ4C) (Meleagris gallopavo, UniProt P43141); assay: cell-based; assay type: cell-based; conditions: for % isop max: CRE-SPAP, % of 10 µM isoprenaline maximum
T2 construct: expressed in transfected cells
T2 sequence (P43141 whole entry): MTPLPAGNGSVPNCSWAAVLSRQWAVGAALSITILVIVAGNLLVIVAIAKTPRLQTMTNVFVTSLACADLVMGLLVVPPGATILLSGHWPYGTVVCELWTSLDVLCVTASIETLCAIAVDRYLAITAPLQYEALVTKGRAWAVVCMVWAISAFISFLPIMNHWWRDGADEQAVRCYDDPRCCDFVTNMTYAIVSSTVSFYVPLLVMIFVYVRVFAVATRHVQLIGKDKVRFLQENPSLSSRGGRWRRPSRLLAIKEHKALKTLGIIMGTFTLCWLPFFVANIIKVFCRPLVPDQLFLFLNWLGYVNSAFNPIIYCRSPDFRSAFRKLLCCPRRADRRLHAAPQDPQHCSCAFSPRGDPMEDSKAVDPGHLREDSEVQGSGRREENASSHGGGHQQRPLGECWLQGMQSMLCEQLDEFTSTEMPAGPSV

[3] = target: T1, turkey β3C-adrenoceptor (tβ3C); assay: CRE-SPAP production, CHO tβ3C cells; assay type: cell-based; conditions: for Emax: read-out: % isop max
[4] = target: Human β3-adrenoceptor; conditions: cited from earlier work
[5] = target: Human β1-adrenoceptor; parameters: method as in PMID 15655528, PMID 20590599; conditions: Human β1, given for comparison; ref 25 and 30; cited from earlier work
[6] = target: T2, turkey β4C-adrenoceptor (tβ4C); assay: cell-based; assay type: binding
[7] = target: Human β2-adrenoceptor; parameters: method as in PMID 15655528, PMID 20590599; conditions: Human β2, given for comparison; ref 25 and 30; cited from earlier work
[8] = target: T1, turkey β3C-adrenoceptor (tβ3C); assay: cell-based
[9] = target: T2, turkey β4C-adrenoceptor (tβ4C); assay: 3H-cAMP accumulation, CHO tβ4C cells; assay type: cell-based
[10] = target: T1, turkey β3C-adrenoceptor (tβ3C)
[11] = tested on: parent CHO cells; assay: 3H-cAMP accumulation, parent CHO cells; conditions: parent CHO cells without transfected receptor
[12] = tested on: parent CHO cells; assay: 3H-CGP12177 binding, parent CHO cells; conditions: parent CHO cells without transfected receptor
Method: Cells were grown to confluence in white-sided tissue culture treated 96-well view plates. ^3H-CGP12177 whole cell binding was performed as previously described. […] For competition binding, the media was removed from each well, 100 µl of serum-free media containing the competing ligand at twice the final required concentration was added to each well followed immediately by a 100 µl of a fixed concentration of ^3H-CGP12177 (1∶2 dilution in well, final well concentrations of 1.24 nM to 12.10 nM). The cells were incubated for 2 hours at 37°C, 5% CO2 humidified atmosphere. For all plates, the cells were washed twice by the addition and removal of 200 µl 4°C phosphate buffered saline. 100 µl Microscint 20 was added to each well, a white sticky base applied to the underside and a sealant top applied to the top of the plate. The plates were left at room temperature overnight in the dark and the plates counted on a Topcount at 21°C for 2 minutes per well.

[13] = Human β3, given for comparison, ref 25 and 30
[14] = competition with 3H-CGP12177, whole cells, CHO tβ3C, given as log KD, mean ± s.e.m., read-out: Log KD (converted)
[15] = competition with 3H-CGP12177, whole cells, CHO tβ4C, given as log KD, mean ± s.e.m., read-out: Log KD (converted)
[16] = CRE-SPAP production, CHO tβ4C cells, read-out: Log EC50 (converted)

T1 sequence (A0A803YLI8 entry or part of it): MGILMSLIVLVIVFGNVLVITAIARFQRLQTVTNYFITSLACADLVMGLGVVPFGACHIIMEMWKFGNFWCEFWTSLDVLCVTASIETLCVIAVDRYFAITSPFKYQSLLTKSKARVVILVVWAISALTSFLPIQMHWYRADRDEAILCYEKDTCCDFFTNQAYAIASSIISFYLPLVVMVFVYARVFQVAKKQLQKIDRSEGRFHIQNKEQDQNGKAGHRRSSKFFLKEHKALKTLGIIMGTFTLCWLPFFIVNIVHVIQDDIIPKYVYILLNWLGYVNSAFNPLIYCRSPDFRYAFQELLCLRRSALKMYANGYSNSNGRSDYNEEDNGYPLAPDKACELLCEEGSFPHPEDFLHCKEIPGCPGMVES

Row | Compound | Kd [1] | Log KD [4, 13] | Log KD [5] | Log KD [7] | Kd [6, 15] | other results
1 | CC(C)NCC(O)c1ccc(O)c(O)c1 (stereo not drawn) [Isoprenaline] | 316 nM | −5.52 | – | – | – | % isop max ([2]; CHO tβ4C cells): 100%; CRE-SPAP gene transcription response ([2]; tβ4C): 2.47±0.10 fold over basal; EC50 [3]: 26.9 nM; % isop max ([3]; CRE-SPAP, % of 10 µM isoprenaline maximum, CHO tβ3C cells): 100%
2 | CCCCCCNC(=O)Nc1ccc(S(=O)(=O)Nc2ccc(CCNC[C@H](O)COc3ccc(O)cc3)cc2)cc1 [L755507] | – | – | −6.23 | −6.83 | – | Log KD ([1]; competition with 3H-CGP12177, whole cells, CHO tβ3C, given as log KD, mean ± s.e.m.): −6.56±0.06; Log KD ([4]; Human β3, binding to site 1): −8.60 ^*; Log KD ([6]; competition with 3H-CGP12177, whole cells, CHO tβ4C, given as log KD, mean ± s.e.m.): −7.63±0.11
3 | CC(C)NCC(O)c1cc(O)cc(O)c1 (stereo not drawn) [Metaproterenol] | – | −4.06 | −4.71 | −5.30 | 7410 nM | Kd [1, 14]: 4170 nM
4 | CC(C)(C)NCC(O)COc1cccc2c1CC(O)C(O)C2 (stereo not drawn) [Nadolol] | – | −6.18 | −7.23 | −8.60 | 18.2 nM | Kd [1, 14]: 11.2 nM
5 | NC[C@H](O)c1ccc(O)c(O)c1 [Noradrenaline] | 11500 nM | −5.53 | −5.74 | −5.41 | 501 nM | EC50 [2, 16]: 81.3 nM; % isop max ([2]; CHO tβ4C cells): 102.3±2.5%; EC50 [3]: 417 nM; Emax [3]: 102 ± 3%
6 | CC(C)NCC(O)c1ccc2ccccc2c1 (stereo not drawn) [Pronethalol] | – | −5.89 | −6.44 | – | – | Kd [1, 14]: 102 nM; Kd [6]: 87.1 nM
7 | CC(CCc1ccc(O)cc1)NCC(O)c1ccc(O)cc1 (stereo not drawn) [Ractopamine] | 224 nM | −5.82 | −6.97 | – | 269 nM | –
8 | CC(C)(C)NC[C@H](O)COc1cccc2[nH]c(C#N)cc12 [S-Cyanopindolol] | 0.00427 nM | −8.36 | – | – | – | EC50 [8]: 0.0251 nM; Emax ([8]; read-out: % isop max): 4.6 ± 0.7%; shape of agonist concentration response ([9]; 3H-cAMP accumulation, tβ4C): two component response; % isop max ([9]; 3H-cAMP, overall response as % of 10 µM isoprenaline, tβ4C): 16.4±2.7%; % site 1 ([9]; % of response occurring via site 1, tβ4C): 44.4±2.0%; shape of agonist concentration response ([10]; 3H-cAMP accumulation, tβ3C): one-component response; Log EC502 ([10]; 3H-cAMP accumulation, tβ3C, one-component response (same value as EC501)): −10.60±0.13; % site 1 ([10]; % of response occurring via site 1, tβ3C): 100%
9 | CC(C)(C)NCC(O)c1ccc(O)c(CO)c1 (stereo not drawn) [Salbutamol] | 724 nM | – | – | – | 4370 nM | EC50 [2, 16]: 42.7 nM; % isop max ([2]; CHO tβ4C cells): 99.9±2.3%; EC50 ([3]; CRE-SPAP production, CHO tβ3C cells, read-out: Log EC50 (converted)): 3.55 nM; Emax [3]: 102 ± 3.1%
10 | OCc1cc(C(O)CNCCCCCCOCCCCc2ccccc2)ccc1O (stereo not drawn) [Salmeterol] | 3.16 nM | −6.33 | – | – | – | EC50 [2]: 3.98 nM; % isop max ([2]; CHO tβ4C cells): 102.5±2.8%; EC50 [3]: 0.0372 nM; Emax [3]: 96 ± 5.7%; Kd [6]: 81.3 nM
11 | O=C(O)Cc1ccc(OCCNC[C@H](O)c2ccccc2)cc1 [ZD2079] | – | −4.59 | −4.21 | >−4 | > 100000 nM | Kd [1, 14]: > 100000 nM
12 | C=C[C@@]1(C)CC(=O)[C@]2(O)[C@@]3(C)[C@@H](O)CCC(C)(C)[C@@H]3[C@H](O)[C@H](OC(C)=O)[C@@]2(C)O1 [forskolin] | – | – | – | – | – | 3H-cAMP accumulation response [11]: 21.5±2.2 fold over basal
13 | CC(C)(Cc1ccccc1)NCC(O)c1ccc(O)c(NS(C)(=O)=O)c1 (stereo not drawn) [zinterol] | 24 nM | −6.27 | −5.96 | −8.04 | 158 nM | –
14 | ^3H-CGP12177 | – | – | – | – | – | Kd ([1]; read-out: KD of 3H-CGP12177, saturation binding, stable CHO tβ3C cell line): 0.29 ± 0.02 nM; Kd ([6]; read-out: KD of 3H-CGP12177, saturation binding, stable CHO tβ4C cell line): 0.58 ± 0.06 nM; specific binding of 3H-CGP12177 [12]: no specific binding
